In PubChem BioAssay (NCI):
“And” between values parts separate entries of the source, which are not always exact repeats. Equal values may be shown once.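 Five compound concentrations were applied to cells in 96-well plates for 48 hours; endpoints were derived by simple linear interpolation of the resulting dose-response curve. GI50 is the concentration that inhibits growth by half. TGI denotes the concentration required for complete inhibition of growth.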 *1 amine or outer side, *2 acyl side, *3 side chain or, on linkers, in order; H or OH if unused. Where a SMILES comes first, the peptide text is derived from it. Bridges are numbered along the chain shown (N, C = ends). Roman numbers before positions name the chains, in order. [ ]: non-standard residue; d: D form. Actinocin(9to1) = Cc1c2oc3c(C)ccc(C(=O)[*:1])c3nc-2c(C(=O)[*:2])c(N)c1=O; NMeF = CN[CH](Cc1ccccc1)C(=O)O; Sar = CNCC(=O)O

How the values were obtained:
Experiment in all cases: inhibition of tumour cell growth, NCI panel, 48 h
[1] = tested on: SW-620 colon
[2] = tested on: SN12C renal
[3] = tested on: SR leukemia
[4] = tested on: A498 renal
[5] = tested on: SK-OV-3 ovarian
[6] = tested on: OVCAR-3 ovarian
[7] = tested on: MOLT-4 leukemia
[8] = tested on: OVCAR-5 ovarian
[9] = tested on: SNB-19 CNS
[10] = tested on: MDA-MB-231 breast

| SMILES | TGI [1] | TGI [2] [µM] | TGI [3] [µM] | TGI [4] | TGI [5] [µM] | TGI [6] | TGI [7] [µM] | TGI [8] | TGI [9] | GI50 [2] | GI50 [3] [µM] | GI50 [7] [µM] | GI50 [10] | GI50 [8] | GI50 [9] | TGI [10] [µM] | GI50 [1] [µM] | GI50 [4] [µM] | GI50 [5] [µM] | GI50 [6] [µM] |
| --- | --- | --- | --- | --- | --- | --- | --- | --- | --- | --- | --- | --- | --- | --- | --- | --- | --- | --- | --- | --- |
| CN(C)C(=O)Oc1c(-c2ccccc2)c(=O)n2c3ccccc3n3c(=O)n(C)c(=O)c1c23 | > 100 µM | > 100 | > 100 | > 100 µM | > 100 | > 100 µM | > 100 | > 100 µM | > 100 µM |  |  |  |  |  |  |  |  |  |  |  |
| O=C(CCC(=O)C1CCC/C1=N/O)Nc1ccc(Cl)cc1 (stereo unspecified) | > 100 µM | > 100 | > 100 | > 100 µM | > 100 | > 100 µM | > 100 | > 100 µM | > 100 µM |  |  |  |  |  |  |  |  |  |  |  |
| Cc1c2oc3c(C)ccc(C(=O)NC4C(=O)NC(C(C)C)C(=O)N5CCCC5C(=O)N(C)CC(=O)N(C)C(Cc5ccccc5)C(=O)OC4C)c3nc-2c(C(=O)NC2C(=O)NC(C(C)C)C(=O)N3CCCC3C(=O)N(C)CC(=O)N(C)C(Cc3ccccc3)C(=O)OC2C)c(N)c1=O (stereo unspecified) (I: TVP[Sar][NMeF] / II: TVP[Sar][NMeF]; ester I:1-I:C, II:1-II:C; linker I:N-II:N via Actinocin(9to1); configuration not given here) | 1.27 µM and 0.139 µM |  |  | < 0.01 µM and 0.0378 µM |  | < 0.01 µM and 0.0453 µM | 0.00414 | 2.01 µM and > 0.41 µM | 0.118 µM and > 0.381 µM | < 0.01 µM and 0.00213 µM | 0.000199 | 0.000346 | < 0.01 µM and 0.0317 µM | < 0.01 µM and 0.0335 µM | < 0.01 µM and 0.00378 µM |  |  |  |  |  |
| CC(=O)N/C(=C\c1ccc(Cc2nc3c([nH]2)C(=O)c2ccccc2C3=O)cc1)c1nc2c([nH]1)C(=O)c1ccccc1C2=O | > 100 µM | > 100 |  | > 100 µM | > 100 | > 100 µM | > 100 | > 100 µM | > 100 µM |  |  |  |  |  |  |  |  |  |  |  |
| COc1ccccc1C(=O)N(C)c1ccc(Cl)c(C(=O)OC(C)C)c1 | > 100 µM | > 100 |  | > 100 µM | > 100 | > 100 µM | > 100 | > 100 µM | > 100 µM |  |  |  |  |  |  | > 100 |  |  |  |  |
| CC(=O)[O-].O=C([CH-]C(=O)c1ccccc1)c1ccccc1.O=C([CH-]C(=O)c1ccccc1)c1ccccc1.[Sm+3] | 23.5 µM | 24.8 |  | 37.2 µM | 37.4 | 13.3 µM | 21.2 | 63.1 µM | 65.7 µM | 6.23 µM |  | 2.41 |  | 21.4 µM | 6.44 µM |  | 2.71 | 13.1 | 6.18 | 2.62 |
| COc1cc(NC(=O)C2=C(N3CCOCC3)/C(=C/c3ccc(Cl)cc3)CC2)cc(OC)c1OC | > 100 µM | > 100 |  | 27.7 µM | 62.8 | > 100 µM | > 100 | > 100 µM | 95.1 µM | 94.3 µM |  | > 100 | 26.5 µM | > 100 µM | 28.8 µM | > 100 | > 100 | 4.97 | 21.7 | 24.9 |
| Cn1cccc1/C=C/c1cc(Br)c(/C=C/c2cccn2C)cc1Br | 56.3 µM | 72.4 |  | 45.1 µM | 30.3 | 33.6 µM | 43.2 | > 100 µM | 92.8 µM |  |  |  |  |  |  |  |  |  |  |  |
| O=NN(CCCl)C(=O)NC1CCC(CC2CCC(NC(=O)N(CCCl)N=O)CC2)CC1 (stereo unspecified) | > 51.3 µM | > 73.5 | 88.7 | 93.9 µM | > 86.4 | > 67.4 µM | 47.8 | > 100 µM | 49.1 µM |  |  |  |  |  |  |  |  |  |  |  |
| COc1cc2c3c(n(C)c(=O)c2cc1OC)-c1cc2c(cc1/C3=C\CCNCCCN)OCO2 |  | 8.41 |  |  | 11.7 |  | 44.4 | 13.4 µM | 14.7 µM | 1.18 µM |  | 0.364 | 0.58 µM | 3.04 µM | 1.42 µM | 3.05 |  |  | 2.73 |  |
| N#CCC(=O)N1CCCCCCC1 | 21.3 µM | > 100 |  | > 100 µM | > 100 |  |  | > 100 µM | > 100 µM |  |  |  |  |  |  |  |  |  |  |  |
| C=CC1=C(C)C2=NC1=CC1=NC(=C(CC)/C1=C\O)C=C1N=C3C(=C1C)C(=O)[C@H](C(=O)OC)C3=C1NC(=C2)[C@@H](C)[C@@H]1CCC(=O)O | > 100 µM | > 100 |  | > 100 µM | > 100 |  | > 100 | > 100 µM | > 100 µM |  |  |  |  |  |  | > 100 |  |  |  |  |
| CC(C)=CC(=O)Cc1nc2ccc([N+](=O)[O-])cc2[nH]c1=O | > 100 µM | > 100 |  | > 100 µM | > 100 | > 100 µM | > 100 | > 100 µM | > 100 µM |  |  |  |  |  |  |  |  |  |  |  |
| O=C(CC/C(CC(=O)c1ccc(Br)cc1)=N\O)Nc1ccc(Cl)c(Cl)c1 | > 100 µM | > 100 | > 100 | > 100 µM | > 100 | > 100 µM | > 100 | > 100 µM |  |  |  |  |  |  |  |  |  |  |  |  |
| CCC[CH2][Sn]1([CH2]CCC)[O]CC(C)[O]1 (stereo unspecified) | 1.83 µM | 2.78 | 2.27 | 4.68 µM | 10.4 | 2.67 µM | 3 | 7.45 µM | 2.64 µM | 1.39 µM | 0.515 | 0.56 |  | 2.03 µM | 1.32 µM |  | 0.46 | 2.6 | 3.56 | 1.37 |
| Cc1ccc(C(=O)CC2=Nc3nnc(CCCCCCCc4nnc5n4C(=O)C(CC(=O)c4ccc(C)cc4)=N5)n3C2=O)cc1 | > 100 µM | > 100 | > 100 |  | > 100 | > 100 µM | > 100 | > 100 µM | > 100 µM |  |  |  |  |  |  |  |  |  |  |  |
| CC(=O)[CH-]C(C)=O.CC(=O)[CH-]C(C)=O.CC[O-].CC[O-].[Ti+4] | > 100 µM | > 100 |  |  | > 100 | > 100 µM | > 100 | > 100 µM | > 100 µM | > 100 µM |  | > 100 |  | > 100 µM | > 100 µM |  | > 100 |  | > 100 | > 100 |
| COC(=O)C(C)NC(=O)c1ccccc1I(OS(=O)(=O)C(F)(F)F)c1ccccc1 (stereo unspecified) | 44 µM | 32.4 |  |  | 56.5 | 41.8 µM | > 85.1 | 36.7 µM | > 65.4 µM | 15.4 µM |  | 42.3 | 15.6 µM | 16.9 µM | 26.3 µM | 34.5 | 20.9 |  | 23.6 | 19 |
